Measurements as given in PubChem BioAssay (NCI).
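These data come from cells grown in 96-well plates and exposed to compound for 48 hours at five concentrations. GI50: concentration for 50% inhibition of growth. At the TGI there is no net growth.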

Legend:
Test in all cases: inhibition of tumour cell growth, NCI panel, 48 h
[1] = system: HOP-92 NSCLC
[2] = system: PC-3 prostate
[3] = system: UACC-62 melanoma
[4] = system: SF-539 CNS
[5] = system: OVCAR-8 ovarian
[6] = system: NCI/ADR-RES ovarian
[7] = system: M14 melanoma
[8] = system: SK-MEL-2 melanoma
[9] = system: MALME-3M melanoma
[10] = system: NCI-H226 lung

Compound	TGI [1]	TGI [2]	TGI [3]	TGI [4]	TGI [5]	TGI [6]	TGI [7]	TGI [8]	TGI [9]	GI50 [1]	GI50 [2]	GI50 [3]	GI50 [4]	GI50 [5]	GI50 [6]	GI50 [7]	GI50 [8]	GI50 [9]	GI50 [10]	TGI [10]
C/C(=N\NC(=S)N1CCCCCC1)c1cccc2cccnc12	> 100 µM	> 100 µM	6.53 µM	5.65 µM	> 100 µM	5.42 µM	14 µM	> 100 µM	> 61 µM											
CN1CCN(c2nc(-c3csc(-c4cccs4)n3)cc3ccccc23)CC1	3.75 µM	4.48 µM	3.15 µM	3.04 µM	3.97 µM	3.92 µM	3.71 µM	3.48 µM	3.12 µM	1.44 µM	1.98 µM	1.69 µM	1.64 µM	1.89 µM	1.93 µM	1.87 µM	1.47 µM	1.65 µM		
COc1ccc(C(=O)c2sc3nc(-c4cccs4)ccc3c2N)cc1OC		> 100 µM	> 100 µM	> 100 µM	> 100 µM	> 100 µM	> 100 µM	19.2 µM			3.65 µM	6.47 µM	5.32 µM	5.56 µM	3.61 µM	4.27 µM	3.29 µM		17.9 µM	> 100 µM
Nc1nc(N)c2nc3c(nc2n1)CCCCCCCCCC3	> 100 µM	> 100 µM	> 100 µM	> 100 µM	> 100 µM	> 100 µM	> 100 µM		> 100 µM	3.23 µM	5.73 µM	1.39 µM	5.69 µM	1.99 µM	2.4 µM	0.544 µM		4.48 µM	19 µM	> 100 µM
CCC(C)C(=O)OCC(=O)c1ccc(-c2ccccc2)cc1 (stereo not given)	> 100 µM	> 100 µM	> 100 µM	> 100 µM	> 100 µM	> 100 µM	> 100 µM	> 100 µM	> 100 µM											
CN(CCCCCl)P(=O)(OCc1ccc([N+](=O)[O-])o1)OCC1OC(n2cnc([N+](=O)[O-])c2N)C(O)C1O (stereo not given)	> 100 µM	> 100 µM	> 100 µM	> 100 µM	> 100 µM	> 100 µM		> 100 µM	> 100 µM	> 100 µM	> 100 µM	> 100 µM	> 100 µM	> 100 µM	> 100 µM		> 100 µM	> 100 µM	> 100 µM	> 100 µM
CC1OC(CC(=O)O)CC2=C1C(=O)c1c(O)cccc1C2=O (stereo not given)	0.331 µM	0.817 µM	0.268 µM	2.43 µM	1.1 µM		0.389 µM	1.14 µM	0.495 µM											3.13 µM
CCCCOC1OC(COC(=O)C(C)C)C(OC(=O)C(C)C)C(O)C1OC1OC(C)C(OC(=O)CCC)C(OC(=O)C(C)C)C1O (stereo not given)	25.9 µM	20.7 µM	24.8 µM	34.8 µM	37.8 µM	11.7 µM		> 100 µM	35.2 µM	13.2 µM	8.35 µM	12.3 µM	20.5 µM	19.6 µM	3.85 µM		36.2 µM	19.5 µM	9.64 µM	22.2 µM
O=C1N(Cc2ccccc2Cl)c2ccccc2C12NN=C(c1cccc(Cl)c1)S2 (stereo not given)	3.17 µM	3.45 µM	3.52 µM		4.41 µM	4.14 µM	3.25 µM	3.38 µM	3.24 µM	1.74 µM	1.74 µM	1.76 µM		1.96 µM	1.78 µM	1.7 µM	1.77 µM	1.54 µM	1.49 µM	2.86 µM
COc1ccc(-c2c3c(nc4n[nH]c(-c5ccc(Cl)cc5)c24)-c2ccccc2C(=O)C3=O)cc1	3.17 µM	3.71 µM	3.85 µM	3.47 µM	3.44 µM	> 100 µM	3.48 µM	3.3 µM	2.81 µM	1.18 µM	1.22 µM	1.59 µM	1.7 µM	1.59 µM	2.64 µM	1.71 µM	1.56 µM	0.75 µM		
O=[N+]([O-])c1cc2no[n+]([O-])c2cc1N1CCCCC1	7.04 µM	5.68 µM	33.8 µM	> 20.1 µM	5.74 µM	> 20.8 µM	7.19 µM	30.5 µM												> 100 µM
